The NIST ThermoML archive (doi:10.1016/j.jct.2015.03.019)
Values joined by “and” are separate entries in the source; they are usually repeats but may differ in a detail not shown here. Identical values can stand only once.

Test: molar heat capacity at constant pressure
Conditions: 101.33 kPa, Crystal, Small (less than 1 g) adiabatic calorimetry

CC(C)(C)c1ccc(Oc2ccccc2)cc1 [4-tert-butylphenyl phenyl ether]
Conditions | molar heat capacity at constant pressure
5 K | 0.671 J/K/mol
7.93 K | 2.627 J/K/mol
8.1 K | 2.719 J/K/mol
8.28 K | 3.035 J/K/mol
8.43 K | 3.06 J/K/mol
8.59 K | 3.268 J/K/mol
8.75 K | 3.459 J/K/mol
8.9 K | 3.675 J/K/mol
9.05 K | 3.725 J/K/mol
9.2 K | 3.958 J/K/mol
9.49 K | 4.365 J/K/mol
9.63 K | 4.573 J/K/mol
9.78 K | 4.881 J/K/mol
9.92 K | 5.097 J/K/mol
10 K | 4.906 J/K/mol
10.28 K | 5.488 J/K/mol
10.56 K | 5.961 J/K/mol
10.85 K | 6.419 J/K/mol
11.15 K | 6.884 J/K/mol
12.02 K | 8.298 J/K/mol
12.32 K | 8.896 J/K/mol
12.61 K | 9.395 J/K/mol
12.91 K | 9.977 J/K/mol
13.21 K | 10.48 J/K/mol
13.51 K | 11.06 J/K/mol
13.81 K | 11.64 J/K/mol
14.11 K | 12.22 J/K/mol
14.41 K | 12.72 J/K/mol
14.71 K | 13.3 J/K/mol
15 K | 13.89 J/K/mol
15.02 K | 13.97 J/K/mol
15.32 K | 14.55 J/K/mol
15.63 K | 15.05 J/K/mol
15.94 K | 15.71 J/K/mol
16.25 K | 16.3 J/K/mol
16.56 K | 16.96 J/K/mol
16.87 K | 17.63 J/K/mol
17.18 K | 18.13 J/K/mol
17.49 K | 18.96 J/K/mol
17.8 K | 19.54 J/K/mol
18.12 K | 20.12 J/K/mol
18.43 K | 20.79 J/K/mol
18.74 K | 21.29 J/K/mol
19.06 K | 21.95 J/K/mol
19.37 K | 22.7 J/K/mol
19.68 K | 23.36 J/K/mol
20 K | 23.95 J/K/mol and 23.95 J/K/mol
20.57 K | 25.05 J/K/mol
21.33 K | 26.59 J/K/mol
22.1 K | 28.07 J/K/mol
22.86 K | 29.59 J/K/mol
23.63 K | 31.1 J/K/mol
24.4 K | 32.68 J/K/mol
25 K | 33.84 J/K/mol
25.18 K | 34.25 J/K/mol
25.95 K | 35.83 J/K/mol
26.73 K | 37.02 J/K/mol
27.51 K | 38.42 J/K/mol
28.29 K | 39.88 J/K/mol
29.07 K | 41.31 J/K/mol
29.85 K | 42.77 J/K/mol
30 K | 43.07 J/K/mol
30.63 K | 44.28 J/K/mol
31.42 K | 45.65 J/K/mol
32.21 K | 47 J/K/mol
33 K | 48.3 J/K/mol
33.79 K | 49.62 J/K/mol
34.58 K | 50.93 J/K/mol
35 K | 51.38 J/K/mol
35.37 K | 52 J/K/mol
36.16 K | 53.14 J/K/mol
36.95 K | 54.29 J/K/mol
37.74 K | 55.42 J/K/mol
38.53 K | 56.54 J/K/mol
39.32 K | 57.57 J/K/mol
40 K | 58.7 J/K/mol
40.11 K | 58.69 J/K/mol
40.91 K | 59.85 J/K/mol
41.7 K | 61.07 J/K/mol
42.49 K | 62.01 J/K/mol
43.29 K | 63.2 J/K/mol
44.08 K | 64.35 J/K/mol
44.88 K | 65.44 J/K/mol
45 K | 65.52 J/K/mol
45.68 K | 66.42 J/K/mol
46.48 K | 67.56 J/K/mol
47.28 K | 68.56 J/K/mol
48.08 K | 69.68 J/K/mol
48.87 K | 70.7 J/K/mol
49.67 K | 71.74 J/K/mol
50 K | 72.09 J/K/mol
50.47 K | 72.8 J/K/mol
51.27 K | 73.72 J/K/mol
52.07 K | 74.77 J/K/mol
52.87 K | 75.83 J/K/mol
53.67 K | 77.23 J/K/mol
56.08 K | 80.21 J/K/mol
56.88 K | 81.22 J/K/mol
57.68 K | 82.24 J/K/mol
58.49 K | 83.23 J/K/mol
59.3 K | 84.31 J/K/mol
60 K | 85.31 J/K/mol
60.1 K | 85.31 J/K/mol
60.91 K | 86.3 J/K/mol
61.71 K | 87.3 J/K/mol
62.51 K | 88.3 J/K/mol
64.11 K | 90.88 J/K/mol
64.92 K | 91.87 J/K/mol
65.72 K | 92.71 J/K/mol
66.52 K | 93.62 J/K/mol
67.33 K | 94.45 J/K/mol
68.13 K | 95.12 J/K/mol
68.94 K | 96.12 J/K/mol
69.74 K | 96.95 J/K/mol
70 K | 97.28 J/K/mol
70.74 K | 97.94 J/K/mol
71.95 K | 99.19 J/K/mol
73.16 K | 100.61 J/K/mol
74.36 K | 101.94 J/K/mol
75.56 K | 102.6 J/K/mol
76.77 K | 103.6 J/K/mol
77.98 K | 104.6 J/K/mol
79.18 K | 105.68 J/K/mol
80 K | 106.59 J/K/mol
80.21 K | 106.67 J/K/mol
80.39 K | 106.92 J/K/mol
81.01 K | 107.17 J/K/mol
81.6 K | 108.09 J/K/mol
81.81 K | 108.17 J/K/mol
82.62 K | 108.84 J/K/mol
82.8 K | 109.25 J/K/mol
83.42 K | 109.58 J/K/mol
84.01 K | 110.25 J/K/mol
85.83 K | 111.83 J/K/mol
86.63 K | 112.66 J/K/mol
87.43 K | 113.33 J/K/mol
88.23 K | 114.16 J/K/mol
89.03 K | 115.07 J/K/mol
89.84 K | 115.9 J/K/mol
90 K | 115.99 J/K/mol
90.64 K | 116.65 J/K/mol
91.44 K | 117.48 J/K/mol
92.24 K | 118.23 J/K/mol
93.05 K | 119.15 J/K/mol
93.85 K | 119.73 J/K/mol
94.65 K | 120.48 J/K/mol
95.46 K | 121.14 J/K/mol
96.26 K | 121.97 J/K/mol
97.06 K | 122.72 J/K/mol
97.87 K | 123.22 J/K/mol
98.67 K | 124.05 J/K/mol
99.47 K | 125.13 J/K/mol
100 K | 125.71 J/K/mol
100.28 K | 125.8 J/K/mol
101.28 K | 127.13 J/K/mol
102.48 K | 128.13 J/K/mol
103.69 K | 129.21 J/K/mol
104.89 K | 130.45 J/K/mol
106.1 K | 131.45 J/K/mol
107.32 K | 132.78 J/K/mol
108.53 K | 133.86 J/K/mol
109.74 K | 134.86 J/K/mol
110 K | 135.19 J/K/mol
110.96 K | 136.11 J/K/mol
112.17 K | 137.19 J/K/mol
113.39 K | 138.27 J/K/mol
114.61 K | 139.43 J/K/mol
115.83 K | 140.51 J/K/mol
117.05 K | 141.6 J/K/mol
118.28 K | 142.59 J/K/mol
119.5 K | 143.76 J/K/mol
